Values quoted from earlier work, collected in US8697106B2, “Coating composition” (SurModics, Inc., priority 2006, dated 2014).

Key:
[1] = system-wide (systemic) concentration
bacteria = conditions: effective systemic concentration

NC[C@H]1O[C@H](O[C@H]2[C@H](O)[C@@H](O[C@H]3O[C@H](CO)[C@@H](O)[C@H](N)[C@H]3O)[C@H](N)C[C@@H]2N)[C@H](N)C[C@@H]1O [tobramycin]
system-wide toxic concentration [1]: about 400 mcg/ml
effective concentration to actively control bacteria (bacteria): ≤ 4 µg/mL
